From patent publication US11883526B2 (priority 2019, dated 2024)
Values joined by “and” are separate entries in the source; they are usually repeats but may differ in a detail not shown here. Identical values can stand only once. “Also recorded” adds a separate entry of the source. Counter-ions that a name gives are not always drawn. Like-named read-outs stand apart in the source and are kept apart here. Marks after values point to notes of the source that are not given here.

Experiments:
[1] = system: adult female Sprague Dawley rats; conditions: 3 hours after a single intraperitoneal injection; cited from earlier work
[2] = Description: This example provides an LC-MS/MS method for the determination of ketamine and norketamine in sodium heparin human plasma using ketamine-d4 and norketamine-d4 as the respective internal standards (IS).
[3] = system: female Sprague-Dawley rats; test: Single dose neurotoxicity study: brain histopathology (neuronal necrosis in PCG/RSC); conditions: single dose up to 72 mg, 48 or 96 hours post-dose; hydrochloride
Experimental: In order to prepare for brain histopathology examination, all main study animals were perfused at necropsy. Prior to the perfusion, rats were anesthetized with isoflurane. After injection of 0.1 ml heparin, the blood of the rat was flushed out with a physiological saline solution by intraarterial insertion of a needle in the abdominal aorta. Thereafter the rat was perfused with glutaraldehyde 3% in potassium phosphate 0.09M and 1.4% sucrose. Due to logistic constraints at maximum 30 animals could undergo the whole-body perfusion procedure on a given day. Therefore, a staggered start of treatment was applied to all 5 groups of main study animals. Consequently, subgroups of 4 main study animals of the vehicle- and 36 and 54 mg-dosed groups, and 5 main study animals of the 72 mg-dosed and positive control groups, were dosed on 6 consecutive days, respectively.
The vehicle control, positive control, and esketamine HCl-dosed animals were sacrificed at either 48 hours (i.e., the first 12 or 15 rats per group) or 96 hours after the dose administration time (i.e., the last 12 or 15 rats per group). The brain tissue of the vehicle control-, positive control- and esketamine HCl-treated rats were processed at the same time and handled in the same way in batches of 4 or 5 animals per group.
Brain tissue was sampled and processed routinely. […]

[4] = system: female Sprague-Dawley rats; test: Single dose neurotoxicity study: mortality, clinical observations, body weight; assay type: in vivo, rat; conditions: for Clinical observation incidence: Abnormal respiration / Clinical observation incidence: Ataxia / Clinical observation incidence: Catalepsy / Clinical observation incidence: Chromodacryorrhea / Clinical observation incidence: Decreased general activity / Clinical observation incidence: Decubitus / Clinical observation incidence: Increased general activity / Clinical observation incidence: Narrowed palpebral fissure / Clinical observation incidence: Piloerection / Clinical observation incidence: Salivation (out of normal) / Clinical observation incidence: audible respiration / Clinical observation incidence: bradypnoea: single dose
Experimental: The injection volume was 5 mL/kg.
(§1) Body weight and body weight gain were measured daily.

[5] = system: female Sprague-Dawley rats; test: 14-day repeated dose neurotoxicity study: mortality, clinical observations, body weight; assay type: in vivo, rat; conditions: for Clinical observation incidence: Abnormal respiration / Clinical observation incidence: Ataxia / Clinical observation incidence: Chromodacryorrhea / Clinical observation incidence: Decreased general activity / Clinical observation incidence: Decubitus / Clinical observation incidence: Increased general activity / Clinical observation incidence: Salivation (out of normal) / Clinical observation incidence: audible respiration / Clinical observation incidence: bradypnoea: 14 days
Experimental: as §1

[6] = Solubility of esketamine HCl; conditions: room temperature, pH 4.5, factor 1.15
Experimental: The clinical investigational product is an aqueous solution of the drug substance, esketamine hydrochloride (HCl). This formulation is administered intranasally to patients using a dual nasal spray device, which delivers one spray into each nostril. […] The formulation was stored at 37° C. for stability reasons until dosing.

[7] = system: female Sprague-Dawley rats; test: 14-day repeated dose neurotoxicity study: brain histopathology (neuronal necrosis in PCG/RSC); conditions: up to 54 mg/day for 14 days, 48 hours after last instillation; hydrochloride
Experimental: Due to logistic constraints associated with the whole body perfusion procedure of the animals at necropsy, a staggered start was applied to the study. Consequently, all 5 groups of main study animals were divided into three subgroups of 4 animals each. For each of these subgroups treatment started on a different day. The perfusion procedure is the is the same as described for the single dose study.
All vehicle- and esketamine HCl-treated animals were sacrificed at 48 hours after the last instillation. […] The brain tissue of the vehicle control-, positive control- and esketamine HCl-treated rats were processed at the same time and handled in the same way in batches of 4 animals per group.
Brain tissue was sampled and processed routinely. The trimmed and embedded tissue was sectioned and stained with hematoxylin-eosin (HE). Histoprocessing and staining were carried out in three batches of 4 animals per group (each batch thus containing 4 animals from vehicle control-, positive control- and the three esketamine HCl-treated groups).
Histopathological examination was performed on 7 levels of brain tissue according to Bolon (2013. Toxicol. Pathol. 41(7), 1028-1048) from the vehicle control-, positive control-, and high dose esketamine HCl-treated groups in the single dose study, and in all groups in the repeated dose study.
The microscopic finding of neuronal necrosis in the PCG/RSC of the brain was graded unilaterally according to the number of necrotic neurons observed over the total length of the PCG/RSC structure visible in the tissue section (usually around 3-5 mm) utilizing the following criteria:

Q: What does the source list for `CNC1(c2ccccc2Cl)CCCCC1=O` (racemic) [ketamine, reference compound]?
A: ED50 for induction of neuronal vacuolation in the PCG/RSC [1]: 47.5 mg/kg body weight; QC sample freeze/thaw stability ([2]; freeze (−20° C.)/thaw (ice-water bath)): 3 freeze (−20° C.)/thaw (ice-water bath) cycles; QC sample freeze/thaw stability ([2]; freeze (−20° C.)/thaw (room temperature)): 3 freeze (−20° C.)/thaw (room temperature) cycles; QC sample long-term storage stability ([2]; human plasma QC sample at −20° C.): 1552 days at −20 °C; QC sample bench-top stability ([2]; human plasma QC sample, room temperature): 68.5 hours at room temp; Stock solution stability (spike solutions) ([2]; ketamine/norketamine spike solutions at −20° C.): 610 days at −20 °C for ketamine/norketamine spike solutions; Processed sample stability ([2]; room temperature): 146.5 hours at room temperature; Whole Blood Stability ([2]; room temperature and ice-water bath (0-4° C.)): 120 minutes at room temperature and in an ice-water bath (0-4° C.); Stock solution stability ([2]; stock solutions at room temperature under white light): 6 h; Stock solution stability ([2]; stock solutions at −20° C.): 15100 h

Q: For `CN[C@]1(c2ccccc2Cl)CCCCC1=O` [esketamine HCl, (S)-2-(2-chlorophenyl)-2-(methylamino)cyclohexanone hydrochloride], which “histopathological lesions / neuronal necrosis in the brain” value [3] is on record?
A: no morphological evidence of neuronal degeneration; also recorded: absent; also recorded: No signs of neuronal necrosis; also recorded: no neuropathological lesions

Q: And the “duration of decreased activity, decubitus, bradypnea, catalepsy (anesthesia) after last instillation” value ([4]; 36 mg)?
A: 15 to 30 min

Q: What about the “duration of ataxia after decreased activity had subsided” value ([4]; 54 mg, hydrochloride) of the same molecule?
A: 1.5 to 3 h and 1 to 3 h

Q: What about the “duration of ataxia after decreased activity had subsided” value ([4]; 72 mg) of the same molecule?
A: ≥ 3 h

Q: And the “Clinical observation incidence: Abnormal respiration” value ([4]; 36 mg intranasal)?
A: 22/24 ***

Q: What about the “Clinical observation incidence: Ataxia” value ([4]; 36 mg intranasal) of the same molecule?
A: 24/24 ***

Q: What about the “Clinical observation incidence: Catalepsy” value ([4]; 36 mg intranasal) of the same molecule?
A: 20/24 ***

Q: And the “Clinical observation incidence: Chromodacryorrhea” value ([4]; 36 mg intranasal)?
A: 0/24

Q: What about the “Clinical observation incidence: Decreased general activity” value ([4]; 36 mg intranasal) of the same molecule?
A: 23/24 ***

Q: And the “Clinical observation incidence: Decubitus” value ([4]; 36 mg intranasal)?
A: 23/24 ***

Q: And the “Clinical observation incidence: Increased general activity” value ([4]; 36 mg intranasal)?
A: 24/24 ***

Q: What about the “Clinical observation incidence: Narrowed palpebral fissure” value ([4]; 36 mg intranasal) of the same molecule?
A: 7/24**

Q: And the “Clinical observation incidence: Piloerection” value ([4]; 36 mg intranasal)?
A: 0/24

Q: And the “Clinical observation incidence: Salivation (out of normal)” value ([4]; 36 mg intranasal)?
A: 23/24 ***

Q: What about the “Clinical observation incidence: audible respiration” value ([4]; 36 mg intranasal) of the same molecule?
A: 10/24 ***

Q: And the “Clinical observation incidence: bradypnoea” value ([4]; 36 mg intranasal)?
A: 22/24 ***

Q: And the “Clinical observation incidence: Abnormal respiration” value ([4]; 54 mg intranasal)?
A: 22/24 ***

Q: What about the “Clinical observation incidence: Ataxia” value ([4]; 54 mg intranasal) of the same molecule?
A: 24/24 ***

Q: What about the “Clinical observation incidence: Catalepsy” value ([4]; 54 mg intranasal) of the same molecule?
A: 23/24 ***

Q: What about the “Clinical observation incidence: Chromodacryorrhea” value ([4]; 54 mg intranasal) of the same molecule?
A: 0/24

Q: And the “Clinical observation incidence: Decreased general activity” value ([4]; 54 mg intranasal)?
A: 23/24 ***

Q: And the “Clinical observation incidence: Decubitus” value ([4]; 54 mg intranasal)?
A: 23/24 ***

Q: And the “Clinical observation incidence: Increased general activity” value ([4]; 54 mg intranasal)?
A: 24/24 ***

Q: And the “Clinical observation incidence: Narrowed palpebral fissure” value ([4]; 54 mg intranasal)?
A: 10/24 ***

Q: What about the “Clinical observation incidence: Piloerection” value ([4]; 54 mg intranasal) of the same molecule?
A: 0/24

Q: And the “Clinical observation incidence: Salivation (out of normal)” value ([4]; 54 mg intranasal)?
A: 24/24 ***

Q: What about the “Clinical observation incidence: audible respiration” value ([4]; 54 mg intranasal) of the same molecule?
A: 3/24

Q: And the “Clinical observation incidence: bradypnoea” value ([4]; 54 mg intranasal)?
A: 21/24 ***

Q: What about the “Clinical observation incidence: Abnormal respiration” value ([4]; 72 mg intranasal) of the same molecule?
A: 30/30 ***

Q: And the “Clinical observation incidence: Catalepsy” value ([4]; 72 mg intranasal)?
A: 30/30 ***

Q: What about the “Clinical observation incidence: Chromodacryorrhea” value ([4]; 72 mg intranasal) of the same molecule?
A: 0/30

Q: And the “Clinical observation incidence: Decreased general activity” value ([4]; 72 mg intranasal)?
A: 30/30 ***

Q: And the “Clinical observation incidence: Decubitus” value ([4]; 72 mg intranasal)?
A: 30/30 ***

Q: What about the “Clinical observation incidence: Increased general activity” value ([4]; 72 mg intranasal) of the same molecule?
A: 29/30 ***

Q: And the “Clinical observation incidence: Narrowed palpebral fissure” value ([4]; 72 mg intranasal)?
A: 22/30 ***

Q: What about the “Clinical observation incidence: Piloerection” value ([4]; 72 mg intranasal) of the same molecule?
A: 0/30

Q: What about the “Clinical observation incidence: Salivation (out of normal)” value ([4]; 72 mg intranasal) of the same molecule?
A: 29/30 ***

Q: And the “Clinical observation incidence: audible respiration” value ([4]; 72 mg intranasal)?
A: 2/30

Q: What about the “Clinical observation incidence: bradypnoea” value ([4]; 72 mg intranasal) of the same molecule?
A: 30/30 ***

Q: What about the mortality ([4]; single intranasal dose 72 mg, within 30 minutes) of the same molecule?
A: two main study animals and two satellite TK animals died

Q: And the mortality ([4]; single intranasal dose up to 54 mg)?
A: No test article related mortality

Q: And the “Clinical observation incidence: Abnormal respiration” value ([5]; 18 mg/day intranasal)?
A: 2/12

Q: And the “Clinical observation incidence: Ataxia” value ([5]; 18 mg/day intranasal)?
A: 12/12***

Q: And the “Clinical observation incidence: Chromodacryorrhea” value ([5]; 18 mg/day intranasal)?
A: 0/12

Q: And the “Clinical observation incidence: Decreased general activity” value ([5]; 18 mg/day intranasal)?
A: 5/12

Q: What about the “Clinical observation incidence: Decubitus” value ([5]; 18 mg/day intranasal) of the same molecule?
A: 0/12

Q: What about the “Clinical observation incidence: Increased general activity” value ([5]; 18 mg/day intranasal) of the same molecule?
A: 12/12***

Q: And the “Clinical observation incidence: Salivation (out of normal)” value ([5]; 18 mg/day intranasal)?
A: 12/12***

Q: What about the “Clinical observation incidence: audible respiration” value ([5]; 18 mg/day intranasal) of the same molecule?
A: 2/12

Q: What about the “Clinical observation incidence: bradypnoea” value ([5]; 18 mg/day intranasal) of the same molecule?
A: 0/12

Q: And the “Clinical observation incidence: Abnormal respiration” value ([5]; 36 mg/day intranasal)?
A: 11/12***

Q: What about the “Clinical observation incidence: Ataxia” value ([5]; 36 mg/day intranasal) of the same molecule?
A: 12/12***

Q: And the “Clinical observation incidence: Chromodacryorrhea” value ([5]; 36 mg/day intranasal)?
A: 0/12

Q: And the “Clinical observation incidence: Decreased general activity” value ([5]; 36 mg/day intranasal)?
A: 12/12***

Q: And the “Clinical observation incidence: Decubitus” value ([5]; 36 mg/day intranasal)?
A: 2/12

Q: What about the “Clinical observation incidence: Increased general activity” value ([5]; 36 mg/day intranasal) of the same molecule?
A: 12/12***

Q: What about the “Clinical observation incidence: Salivation (out of normal)” value ([5]; 36 mg/day intranasal) of the same molecule?
A: 12/12***

Q: What about the “Clinical observation incidence: audible respiration” value ([5]; 36 mg/day intranasal) of the same molecule?
A: 6/12**

Q: What about the “Clinical observation incidence: bradypnoea” value ([5]; 36 mg/day intranasal) of the same molecule?
A: 11/12***

Q: What about the “Clinical observation incidence: Abnormal respiration” value ([5]; 54 mg/day intranasal) of the same molecule?
A: 12/12***

Q: And the “Clinical observation incidence: Ataxia” value ([5]; 54 mg/day intranasal)?
A: 12/12***

Q: And the “Clinical observation incidence: Chromodacryorrhea” value ([5]; 54 mg/day intranasal)?
A: 0/12

Q: What about the “Clinical observation incidence: Decreased general activity” value ([5]; 54 mg/day intranasal) of the same molecule?
A: 12/12***

Q: And the “Clinical observation incidence: Decubitus” value ([5]; 54 mg/day intranasal)?
A: 8/12***

Q: And the “Clinical observation incidence: Increased general activity” value ([5]; 54 mg/day intranasal)?
A: 12/12***

Q: And the “Clinical observation incidence: Salivation (out of normal)” value ([5]; 54 mg/day intranasal)?
A: 12/12***

Q: What about the “Clinical observation incidence: audible respiration” value ([5]; 54 mg/day intranasal) of the same molecule?
A: 6/12**

Q: What about the “Clinical observation incidence: bradypnoea” value ([5]; 54 mg/day intranasal) of the same molecule?
A: 12/12***

Q: And the mortality ([5]; up to 54 mg/day for 14 days)?
A: No test article related mortality

Q: What about the “maximum solubility expressed as base” value [6] of the same molecule?
A: 180 mg esketamine base/mL

Q: And the “histopathological lesions / neuronal necrosis in the brain” value [7]?
A: absence of neuronal necrosis; also recorded: No histopathological lesions
